Structures are written as SMILES.

This assay concerns the target Matrix protein 2 (Influenza A virus (A/Udorn/307/1972(H3N2)), UniProt P0DOF8, S31N).

Turning to `CCC1(N)C2CC3CC(C2)CC1C3` (centres undefined), the Kd result is listed as “Not Active”.
Take `CC1(N)C2CC3CC(C2)CC1C3` (centres undefined): the Kd result is listed as “Not Active”.
The value for `NC12CC3CC(CC(C3)C1)C2` [AMANTADINE] was “Not Active”; that for `NC1C2CC3CC(C2)CC1C3` (centres undefined) was “Not Active”.

Values taken from ChEMBL document CHEMBL4004820 (J Med Chem, 2017).
